The source of these data is patent US8518945B2, “Pyrrolopyrazine kinase inhibitors” (Hoffmann-La Roche Inc., priority 2010, dated 2013).

In series [1] the target is T1, h-jak3(810-1124) (JAK3: Recombinant human kinase domain) (Homo sapiens, UniProt P52333).
T1 construct: jak3(810- 1124)-sf9-c; made in house; host or cells: Sf9
As to the kind of experiment: Determination of IC50 of Janus Kinase (JAK) inhibition: JAK3 radioactive end-point 33P-ATP kinase assay. In kind it is biochemical. Particulars: no additive; ATP 1.5 uM, peptide 50 uM, 20 minutes, room temperature; read-out: Ic50 h-jak3(810-1124)-sf9-c: no additive.

Each structure is given as a SMILES string.

As a reminder, the IC50 is the concentration that inhibits the measured activity by half. Usually melting point stands for the temperature of the solid-liquid transition.

T1 sequence (P52333 810-1124): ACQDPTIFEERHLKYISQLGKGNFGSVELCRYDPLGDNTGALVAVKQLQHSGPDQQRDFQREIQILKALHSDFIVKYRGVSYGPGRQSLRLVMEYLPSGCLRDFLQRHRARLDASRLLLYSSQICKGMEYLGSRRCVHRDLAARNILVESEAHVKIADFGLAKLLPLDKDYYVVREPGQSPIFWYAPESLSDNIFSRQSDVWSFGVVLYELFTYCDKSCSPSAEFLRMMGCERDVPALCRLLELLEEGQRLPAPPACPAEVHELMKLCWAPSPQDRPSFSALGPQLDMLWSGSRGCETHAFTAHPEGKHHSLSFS

`CCn1cc(-c2cnc3[nH]cc(C(=O)N[C@@H](C(=O)N4CCCC4)C4(C)CC4)c3n2)cn1` [Example I-34, 2-(1-Ethyl-1H-pyrazol-4-yl)-5H-pyrrolo[2,3-b]pyrazine-7-carboxylic acid [(R)-1-(1-methyl-cyclopropyl)-2-oxo-2-pyrrolidin-1-yl-ethyl]-amide]: the melting point lay within 218 to 220 °C. Moreover, the IC50 in series [1] was determined as 0.87 nM.

Take `CCn1cc(-c2cnc3[nH]cc(C(=O)N[C@@H](C(=O)N4CCC(C)(C#N)C4)C(C)(C)C)c3n2)cn1` (stereo partly drawn) [Example I-28, 2-(1-Ethyl-1H-pyrazol-4-yl)-5H-pyrrolo[2,3-b]pyrazine-7-carboxylic acid [(R)-1-(3-cyano-3-methyl-pyrrolidine-1-carbonyl)-2,2-dimethyl-propyl]-amide]: the melting point fell in the range of 228 to 230 °C. Also, the IC50 in series [1] was determined as 0.51 nM.
